Measurements taken from US20120028985A1, “COMBINATIONAL THERAPY FOR TREATING AUTOIMMUNE DISEASE” (4SC AG, priority 2008, published 2012).
Entries after “also recorded” stand apart in the source; their conditions may differ. Marks after values point to notes of the source that are not given here.

What was measured:
DBA1/J mice = assay: Liver histology in collagen induced arthritis mice; type: in vivo; conditions: individual mouse; diseased mice; po, MTX 2.5 mg/kg, Formula (II) 50 mg/kg
Description: Dosing is started, PO (per oral) once daily for 14 days.

[1] = Toxicokinetics of formula (II) and methotrexate after individual and concomitant administration to Beagle dogs; type: in vivo; conditions: Beagle, dog, plasma, po, mean
Beagle dogs [2] = assay: 13-week repeat dose toxicity in Beagle dogs, combination with methotrexate: clinical biochemistry (ALAT, ASAT); type: in vivo; conditions: for ALAT, change as compared to the control group 1 / ASAT, change as compared to the control group 1: 25 mg Formula (II)/kg/day and/or 10/2.5 mg MTX/kg/week, p.o.
Procedure: For laboratory examinations blood samples were taken from the vena cephalica or vena saphena magna from animals fasted overnight. Serum samples were collected into tubes for biochemical tests. Clinical biochemistry parameters from venous blood were determined at the times listed below:
Prior to study start: all animals of a pool of 52 dogs […]
At the end of the recovery period: all 8 recovery animals included in this study
Clinical biochemistry parameters (e.g. bile acids, alanine aminotransferase=ALAT, alkaline phosphatise=aP, aspartate aminotransferase=ASAT, gamma-glutamyl-transferase=Gamma-GT, glutamate dehydrogenase=GLDH, creatine kinase=CK) were measured using KONELAB 30i instrument (Thermo Fisher Scientific, 63303 Dreieich, Germany) as U/L (unit/liter) serum.

Beagle dogs [3] = test system: Beagle dogs
Description: The animals were randomly allocated to five test groups employing a pseudo-random body weight stratification procedure that yielded groups with approximately equal mean body weights. […] A special focus of the study was to study the influence of the combination treatment on liver toxicity.

[4] = female, 2.5 mg/kg, Group 3, methotrexate alone 2.5 mg/kg (reduced from 10), week 13, female Beagle dogs
[5] = female, 2.5 mg/kg, Group 4 (+10SC, in combination with 10 mg/kg formula (II)), methotrexate 2.5 mg/kg (reduced from 10), week 13, female Beagle dogs
[6] = female, 2.5 mg/kg, Group 5 (+25SC, in combination with 25 mg/kg formula (II)), methotrexate 2.5 mg/kg (reduced from 10), week 13, female Beagle dogs
[7] = female, 10 mg/kg, Group 3, methotrexate 10 mg/kg alone, day 1, female Beagle dogs
[8] = female, 10 mg/kg, Group 4 (+10SC, in combination with 10 mg/kg formula (II)), methotrexate 10 mg/kg, day 1, female Beagle dogs
[9] = female, 10 mg/kg, Group 5 (+25SC, in combination with 25 mg/kg formula (II)), methotrexate 10 mg/kg, day 1, female Beagle dogs
[10] = male, 2.5 mg/kg, Group 3, methotrexate alone 2.5 mg/kg (reduced from 10), week 13, male Beagle dogs
[11] = male, 2.5 mg/kg, Group 4 (+10SC, in combination with 10 mg/kg formula (II)), methotrexate 2.5 mg/kg (reduced from 10), week 13, male Beagle dogs
[12] = male, 2.5 mg/kg, Group 5 (+25SC, in combination with 25 mg/kg formula (II)), methotrexate 2.5 mg/kg (reduced from 10), week 13, male Beagle dogs
[13] = male, 10 mg/kg, Group 3, methotrexate 10 mg/kg alone, day 1, male Beagle dogs
[14] = male, 10 mg/kg, Group 4 (+10SC, in combination with 10 mg/kg formula (II)), methotrexate 10 mg/kg, day 1, male Beagle dogs
[15] = male, 10 mg/kg, Group 5 (+25SC, in combination with 25 mg/kg formula (II)), methotrexate 10 mg/kg, day 1, male Beagle dogs

CN(Cc1cnc2nc(N)nc(N)c2n1)c1ccc(C(=O)N[C@@H](CCC(=O)O)C(=O)O)cc1 [MTX, methotrexate, reference compound]
Liver Histology, Observations (DBA1/J mice): Minimal glycogen depletion, hepatocyte; also recorded: Mild glycogen depletion, hepatocyte; also recorded: Normal; also recorded: Minimal multifocal subacute inflammation | AUC(0-inf) [1, 4]: 2200 ng·h/mL | Cmax [1, 4]: 500 ng/mL | half-life [1, 4]: 138 min | AUC(0-inf) [1, 5]: 1900 ng·h/mL | Cmax [1, 5]: 400 ng/mL | half-life [1, 5]: 156 min | AUC(0-inf) [1, 6]: 1400 ng·h/mL | Cmax [1, 6]: 200 ng/mL | half-life [1, 6]: 162 min | AUC(0-inf) [1, 7]: 5300 ng·h/mL | Cmax [1, 7]: 1100 ng/mL | half-life [1, 7]: 144 min | AUC(0-inf) [1, 8]: 7500 ng·h/mL | Cmax [1, 8]: 1700 ng/mL | AUC(0-inf) [1, 9]: 5000 ng·h/mL | Cmax [1, 9]: 1200 ng/mL | half-life [1, 9]: 120 min | AUC(0-inf) [1, 10]: 3000 ng·h/mL | Cmax [1, 10]: 700 ng/mL | half-life [1, 10]: 156 min | AUC(0-inf) [1, 11]: 2000 ng·h/mL | Cmax [1, 11]: 400 ng/mL | half-life [1, 11]: 120 min | AUC(0-inf) [1, 12]: 2500 ng·h/mL | Cmax [1, 12]: 600 ng/mL | half-life [1, 12]: 126 min | AUC(0-inf) [1, 13]: 6400 ng·h/mL | Cmax [1, 13]: 1800 ng/mL | half-life [1, 13]: 96 min | AUC(0-inf) [1, 14]: 6600 ng·h/mL | Cmax [1, 14]: 1700 ng/mL | half-life [1, 14]: 96 min | AUC(0-inf) [1, 15]: 5900 ng·h/mL | Cmax [1, 15]: 1200 ng/mL | half-life [1, 15]: 132 min | Changes in the biochemical parameters (Beagle dogs [2]; Beagle dogs, 13 weeks oral, serum): pronounced and statistically significant (at p≦0.01) changes in the biochemical parameters of ALAT, ASAT, CK, GLDH as well as bile acids | ALAT, change as compared to the control group 1 (Beagle dogs [2]; Test day 37, females): +190% | ASAT, change as compared to the control group 1 (Beagle dogs [2]; Test day 37, females): +47** % | ALAT, change as compared to the control group 1 (Beagle dogs [2]; Test day 37, males): none | ASAT, change as compared to the control group 1 (Beagle dogs [2]; Test day 37, males): none | ALAT, change as compared to the control group 1 (Beagle dogs [2]; Test day 93, females): +567% | ASAT, change as compared to the control group 1 (Beagle dogs [2]; Test day 93, females): +34** % | ALAT, change as compared to the control group 1 (Beagle dogs [2]; Test day 93, males): +386% | ASAT, change as compared to the control group 1 (Beagle dogs [2]; Test day 93, males): +55** % | Premature death (Beagle dogs [3]; Beagle dogs, 10 mg MTX/kg body weight/week, oral): found dead in the morning of test day 20 | Enteritis in the gastro-intestinal mucosa (Beagle dogs [3]; dog, in vivo, po): most pronounced
